This data set is described as follows: Minimum concentration of CBD required for crystallization from solution. It is filed as physicochemical. Here is the method: The minimum concentration of CBD required for selective crystallization from a solution containing a plurality of cannabinoids was evaluated.
The CBD-rich solution shown in Table A7 was diluted in MCT coconut oil to the aforementioned CBD concentrations. The samples were heated to 60° C. for about five minutes. Then, each solution was subjected to the following nucleation factors: agitation (intense stirring), cold shock (cooling solution to −20° C. and mixing), introduction of a CBD seed crystal, and exposure to a vacuum at a pressure of −25 inHg). Photographs of the crystallized cannabinoids were taken after 24 hours.
The experiment was also repeated using mixtures of cannabinoid CBD and THCa isolates in oleic acid.

The structures appear in SMILES notation.

As to `C=C(C)[C@@H]1CCC(C)=C[C@H]1c1c(O)cc(CCCCC)cc1O` [CBD, Cannabidiol], where the note is “CBD-rich solution with a plurality of cannabinoids diluted in MCT coconut oil, heated to 60° C., agitation, cold shock −20° C., seed crystal, vacuum −25 inHg, after 24 hours”, the “lowest tested concentration of CBD that exhibited crystallization” value was 19.6%. Further, the “lowest tested concentration of CBD that crystallized” value (mixtures of CBD and THCa isolates in oleic acid (FIG. 16: 24% CBD, 1% THCA, 75% oleic acid)) was 24%.

Values taken from US11345650B1, “Methods and systems for crystallizing and isolating individual cannabinoids” (MYKU Biosciences LLC, priority 2021, dated 2022).
